Positions of bridges follow the written chain, without caps; N, C: chain ends. Non-standard residues stand in square brackets, D forms with d. Residues, ends and D or L forms follow the SMILES beside them. Ala(indol-4-yl) = N[C@@H](Cc1cccc2[nH]ccc12)C(=O)O; Phe(3,4-(OMe)2) = COc1ccc(C[C@H](N)C(=O)O)cc1OC; Phe(3,4-Cl2) = N[C@@H](Cc1ccc(Cl)c(Cl)c1)C(=O)O; Phe(4-CF3) = N[C@@H](Cc1ccc(C(F)(F)F)cc1)C(=O)O; Ala(4-thiazolyl) = N[C@@H](Cc1cscn1)C(=O)O; Phe(3-OMe) = COc1cccc(C[C@H](N)C(=O)O)c1; Phe(4-Cl) = N[C@@H](Cc1ccc(Cl)cc1)C(=O)O; Ala(2-furyl) = N[C@@H](Cc1ccco1)C(=O)O; Phe(2-Cl) = N[C@@H](Cc1ccccc1Cl)C(=O)O; Phe(4-Me) = Cc1ccc(C[C@H](N)C(=O)O)cc1; NMeF = CN[C@@H](Cc1ccccc1)C(=O)O; NMeNle = CCCC[C@H](NC)C(=O)O; Sar = CNCC(=O)O

The record followed here is patent publication US9850283B2, “Macrocyclic inhibitors of the PD-1/PD-L1 and CD80(B7-1)/PD-L1 protein/protein interactions” (BRISTOL-MYERS SQUIBB COMPANY, priority 2013, dated 2017).

The target of assay [1] is T1, LK35.2-hPD-L1 cells / PE-labeled PD-1-Ig (Homo sapiens, UniProt Q9NZQ7).
T1 construct: expressed in transfected cells; host or cells: LK35.2 mouse B cell line
T1 sequence (Q9NZQ7 19-290): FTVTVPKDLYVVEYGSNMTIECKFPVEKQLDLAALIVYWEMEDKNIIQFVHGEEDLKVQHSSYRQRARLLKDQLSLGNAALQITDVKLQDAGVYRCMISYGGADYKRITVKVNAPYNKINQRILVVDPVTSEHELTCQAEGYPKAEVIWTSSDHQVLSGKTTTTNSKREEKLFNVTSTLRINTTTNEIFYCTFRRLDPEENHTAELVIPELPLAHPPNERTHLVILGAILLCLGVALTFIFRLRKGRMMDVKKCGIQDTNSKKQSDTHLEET
The experiment in a line: LK35.2-hPD-L1 cell binding high-content screening assay. The note with it: cluster symbol; cell line of CBA not given (LK35.2-hPD-L1 or 293T-hPD-L1); read-out: CBA IC50 cluster. It is filed as cell-based. In a few lines:
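Mouse LK35.2 B cells stably overexpressing human PD-L1 were cultured overnight in RPMI with 10% FCS, then given compound and PE-labeled human PD-1-Ig (1 nM final) for 1 h at 37 °C. After three dPBS washes, bound fluorescence was quantified by high-content imaging.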

For another assay, the target named is T2, Human PD-L1/PD-1 (Homo sapiens, UniProt Q9NZQ7).
T2 construct: made in house; host or cells: HEK293T
T2 sequence (Q9NZQ7 with tags, fused parts or gaps): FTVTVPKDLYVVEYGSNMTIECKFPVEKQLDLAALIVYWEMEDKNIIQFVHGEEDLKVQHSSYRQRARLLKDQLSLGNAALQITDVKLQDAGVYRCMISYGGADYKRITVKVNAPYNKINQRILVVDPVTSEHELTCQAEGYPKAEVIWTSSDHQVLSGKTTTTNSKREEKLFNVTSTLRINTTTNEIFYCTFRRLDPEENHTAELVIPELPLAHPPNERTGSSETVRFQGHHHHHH
The experiment in a line: HTRF PD-1-Ig/PD-L1-His binding assay (human PD-L1). The note with it: cluster symbol; read-out: HTRF IC50 cluster. The procedure, abridged:
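Interaction of Fc-tagged soluble PD-1 with His-tagged soluble PD-L1 is monitored by time-resolved FRET. Donor is europium cryptate anti-Ig (1 nM final) and acceptor is APC anti-His (20 nM final). Assay buffer is dPBS with 0.1% BSA and 0.05% Tween-20.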

Take `CCCC[C@H]1C(=O)N(C)CC(=O)N[C@@H](CC(=O)O)C(=O)N[C@@H](C(C)C)C(=O)N(C)[C@@H](Cc2ccccc2)C(=O)N[C@@H](Cc2ccc(O)cc2)C(=O)N(C)CC(=O)N[C@@H](Cc2c[nH]c3ccccc23)C(=O)N[C@@H](Cc2ccc(O)cc2)C(=O)N[C@@H](CC(C)C)C(=O)N[C@H](C(=O)NCC(N)=O)CSCC(=O)N[C@@H](Cc2cnc[nH]2)C(=O)N(C)[C@@H](Cc2ccccc2)C(=O)N1C` [Example 3091] (HELM PEPTIDE1{[O=C(C[*:3])[*:2]].H.[meF].[CCCC[C@@H](C(=O)[*:2])N(C)[*:1]].[Sar].D.V.[meF].Y.[Sar].W.Y.L.C.G.[am]}$PEPTIDE1,PEPTIDE1,1:R3-14:R3$$$V2.0): the IC50 in assay [1] is above 74.3 nM; on Human PD-L1/PD-1 it was above 30.5 nM.

In the case of `CCCC[C@H]1C(=O)N(C)CC(=O)N[C@@H](CC(=O)O)C(=O)N[C@@H](C(C)C)C(=O)N(C)[C@@H](Cc2ccccc2)C(=O)N[C@@H](Cc2ccc(O)cc2)C(=O)N(C)CC(=O)N[C@@H](Cc2c[nH]c3ccccc23)C(=O)N[C@@H](Cc2ccc(O)cc2)C(=O)N[C@@H](CC(C)C)C(=O)N[C@H](C(=O)NCC(N)=O)CSCC(=O)N[C@@H](Cc2cscn2)C(=O)N(C)[C@@H](Cc2ccccc2)C(=O)N1C` [Example 3092] ({CH2CO}-[Ala(4-thiazolyl)][NMeF][NMeNle][Sar]DV[NMeF]Y[Sar]WYLCG-NH2; thioether N-13), the IC50 in assay [1] is above 74.3 nM; on Human PD-L1/PD-1 it was above 30.5 nM.

As to `CCCC[C@H]1C(=O)N(C)CC(=O)N[C@@H](CC(=O)O)C(=O)N[C@@H](C(C)C)C(=O)N(C)[C@@H](Cc2ccccc2)C(=O)N[C@@H](Cc2ccc(O)cc2)C(=O)N(C)CC(=O)N[C@@H](Cc2c[nH]c3ccccc23)C(=O)N[C@@H](Cc2ccc(O)cc2)C(=O)N[C@@H](CC(C)C)C(=O)N[C@H](C(=O)NCC(N)=O)CSCC(=O)N[C@@H](Cc2ccc(C(F)(F)F)cc2)C(=O)N(C)[C@@H](Cc2ccccc2)C(=O)N1C` [Example 3093] ({CH2CO}-[Phe(4-CF3)][NMeF][NMeNle][Sar]DV[NMeF]Y[Sar]WYLCG-NH2; thioether N-13), the values for the IC50 (in assay [1]; at Human PD-L1/PD-1) were 4.78 to 72.9 nM and above 30.5 nM, respectively.

With `CCCC[C@H]1C(=O)N(C)CC(=O)N[C@@H](CC(=O)O)C(=O)N[C@@H](C(C)C)C(=O)N(C)[C@@H](Cc2ccccc2)C(=O)N[C@@H](Cc2ccc(O)cc2)C(=O)N(C)CC(=O)N[C@@H](Cc2c[nH]c3ccccc23)C(=O)N[C@@H](Cc2ccc(O)cc2)C(=O)N[C@@H](CC(C)C)C(=O)N[C@H](C(=O)NCC(N)=O)CSCC(=O)N[C@@H](Cc2ccc(C)cc2)C(=O)N(C)[C@@H](Cc2ccccc2)C(=O)N1C` [Example 3094] ({CH2CO}-[Phe(4-Me)][NMeF][NMeNle][Sar]DV[NMeF]Y[Sar]WYLCG-NH2; thioether N-13), the IC50 was 4.78 to 72.9 nM in assay [1] and 6.76 to 30.3 nM on Human PD-L1/PD-1.

Take `CCCC[C@H]1C(=O)N(C)CC(=O)N[C@@H](CC(=O)O)C(=O)N[C@@H](C(C)C)C(=O)N(C)[C@@H](Cc2ccccc2)C(=O)N[C@@H](Cc2ccc(O)cc2)C(=O)N(C)CC(=O)N[C@@H](Cc2c[nH]c3ccccc23)C(=O)N[C@@H](Cc2ccc(O)cc2)C(=O)N[C@@H](CC(C)C)C(=O)N[C@H](C(=O)NCC(N)=O)CSCC(=O)N[C@@H](Cc2cccc(OC)c2)C(=O)N(C)[C@@H](Cc2ccccc2)C(=O)N1C` [Example 3095] ({CH2CO}-[Phe(3-OMe)][NMeF][NMeNle][Sar]DV[NMeF]Y[Sar]WYLCG-NH2; thioether N-13): the IC50 in assay [1] was in the range of 4.78 to 72.9 nM; at Human PD-L1/PD-1, 6.76 to 30.3 nM.

For the compound `CCCC[C@H]1C(=O)N(C)CC(=O)N[C@@H](CC(=O)O)C(=O)N[C@@H](C(C)C)C(=O)N(C)[C@@H](Cc2ccccc2)C(=O)N[C@@H](Cc2ccc(O)cc2)C(=O)N(C)CC(=O)N[C@@H](Cc2c[nH]c3ccccc23)C(=O)N[C@@H](Cc2ccc(O)cc2)C(=O)N[C@@H](CC2CCCCC2)C(=O)N[C@H](C(=O)NCC(N)=O)CSCC(=O)N[C@@H](Cc2ccccc2)C(=O)N(C)[C@@H](Cc2ccccc2)C(=O)N1C` [Example 3096] (HELM PEPTIDE1{[O=C(C[*:3])[*:2]].F.[meF].[CCCC[C@@H](C(=O)[*:2])N(C)[*:1]].[Sar].D.V.[meF].Y.[Sar].W.Y.[Cha].C.G.[am]}$PEPTIDE1,PEPTIDE1,1:R3-14:R3$$$V2.0), the IC50 in assay [1] is 4.78 to 72.9 nM; at Human PD-L1/PD-1, 6.76 to 30.3 nM.

With `CCCC[C@@H]1NC(=O)[C@H](Cc2ccc(O)cc2)NC(=O)[C@H](Cc2c[nH]c3ccccc23)NC(=O)CN(C)C(=O)[C@H](Cc2ccc(O)cc2)NC(=O)[C@H](Cc2ccccc2)N(C)C(=O)[C@H](C(C)C)NC(=O)[C@H](CC(=O)O)NC(=O)CN(C)C(=O)[C@H](CCCC)N(C)C(=O)[C@H](Cc2ccccc2)N(C)C(=O)[C@H](Cc2ccccc2)NC(=O)CSC[C@@H](C(=O)NCC(N)=O)NC1=O` [Example 3097] (HELM PEPTIDE1{[O=C(C[*:3])[*:2]].F.[meF].[CCCC[C@@H](C(=O)[*:2])N(C)[*:1]].[Sar].D.V.[meF].Y.[Sar].W.Y.[Nle].C.G.[am]}$PEPTIDE1,PEPTIDE1,1:R3-14:R3$$$V2.0), the IC50 in assay [1] is 4.78 to 72.9 nM; on Human PD-L1/PD-1 it was 6.76 to 30.3 nM.

As for `CCCC[C@H]1C(=O)N(C)CC(=O)N[C@@H](CC(=O)O)C(=O)N[C@@H](C(C)C)C(=O)N(C)[C@@H](Cc2ccccc2)C(=O)N[C@@H](Cc2ccc(O)cc2)C(=O)N(C)CC(=O)N[C@@H](Cc2c[nH]c3ccccc23)C(=O)N[C@@H](Cc2ccc(O)cc2)C(=O)N[C@@H](Cc2ccc(Cl)cc2)C(=O)N[C@H](C(=O)NCC(N)=O)CSCC(=O)N[C@@H](Cc2ccccc2)C(=O)N(C)[C@@H](Cc2ccccc2)C(=O)N1C` [Example 3098] ({CH2CO}-F[NMeF][NMeNle][Sar]DV[NMeF]Y[Sar]WY[Phe(4-Cl)]CG-NH2; thioether N-13), the IC50 in assay [1] is 4.78 to 72.9 nM; on Human PD-L1/PD-1 it was above 30.5 nM.

As for `CCCC[C@H]1C(=O)N(C)CC(=O)N[C@@H](CC(=O)O)C(=O)N[C@@H](C(C)C)C(=O)N(C)[C@@H](Cc2ccccc2)C(=O)N[C@@H](Cc2ccc(O)cc2)C(=O)N(C)CC(=O)N[C@@H](Cc2c[nH]c3ccccc23)C(=O)N[C@@H](Cc2ccc(Cl)cc2)C(=O)N[C@@H](CC(C)C)C(=O)N[C@H](C(=O)NCC(N)=O)CSCC(=O)N[C@@H](Cc2ccccc2)C(=O)N(C)[C@@H](Cc2ccccc2)C(=O)N1C` [Example 3099] ({CH2CO}-F[NMeF][NMeNle][Sar]DV[NMeF]Y[Sar]W[Phe(4-Cl)]LCG-NH2; thioether N-13), the IC50 was above 74.3 nM in assay [1] and above 30.5 nM at Human PD-L1/PD-1.

As to `CCCC[C@H]1C(=O)N(C)CC(=O)N[C@@H](CC(=O)O)C(=O)N[C@@H](C(C)C)C(=O)N(C)[C@@H](Cc2ccccc2)C(=O)N[C@@H](Cc2ccc(O)cc2)C(=O)N(C)CC(=O)N[C@@H](Cc2c[nH]c3ccccc23)C(=O)N[C@@H](Cc2ccc(Cl)c(Cl)c2)C(=O)N[C@@H](CC(C)C)C(=O)N[C@H](C(=O)NCC(N)=O)CSCC(=O)N[C@@H](Cc2ccccc2)C(=O)N(C)[C@@H](Cc2ccccc2)C(=O)N1C` [Example 3100] ({CH2CO}-F[NMeF][NMeNle][Sar]DV[NMeF]Y[Sar]W[Phe(3,4-Cl2)]LCG-NH2; thioether N-13), the IC50 in assay [1] is above 74.3 nM; at Human PD-L1/PD-1, above 30.5 nM.

For `CCCC[C@H]1C(=O)N(C)CC(=O)N[C@@H](CC(=O)O)C(=O)N[C@@H](C(C)C)C(=O)N(C)[C@@H](Cc2ccccc2)C(=O)N[C@@H](Cc2ccc(O)cc2)C(=O)N(C)CC(=O)N[C@@H](Cc2c[nH]c3ccccc23)C(=O)N[C@@H](Cc2ccc(O)cc2)C(=O)N[C@@H](CC(C)C)C(=O)N[C@H](C(=O)NCC(N)=O)CSCC(=O)N[C@@H](Cc2ccco2)C(=O)N(C)[C@@H](Cc2ccccc2)C(=O)N1C` [Example 3101] ({CH2CO}-[Ala(2-furyl)][NMeF][NMeNle][Sar]DV[NMeF]Y[Sar]WYLCG-NH2; thioether N-13), the IC50 in assay [1] was above 74.3 nM; at Human PD-L1/PD-1 it was above 30.5 nM.

Consider `CCCC[C@H]1C(=O)N(C)CC(=O)N[C@@H](CC(=O)O)C(=O)N[C@@H](C(C)C)C(=O)N(C)[C@@H](Cc2ccccc2)C(=O)N[C@@H](Cc2ccc(O)cc2)C(=O)N(C)CC(=O)N[C@@H](Cc2c[nH]c3ccccc23)C(=O)N[C@@H](Cc2ccc(O)cc2)C(=O)N[C@@H](CC(C)C)C(=O)N[C@H](C(=O)NCC(N)=O)CSCC(=O)N[C@@H](Cc2ccc(OC)c(OC)c2)C(=O)N(C)[C@@H](Cc2ccccc2)C(=O)N1C` [Example 3102] ({CH2CO}-[Phe(3,4-(OMe)2)][NMeF][NMeNle][Sar]DV[NMeF]Y[Sar]WYLCG-NH2; thioether N-13), for which the IC50 was above 74.3 nM in assay [1] and above 30.5 nM at Human PD-L1/PD-1.

Consider `CCCC[C@H]1C(=O)N(C)CC(=O)N[C@@H](CC(=O)O)C(=O)N[C@@H](C(C)C)C(=O)N(C)[C@@H](Cc2ccccc2)C(=O)N[C@@H](Cc2ccc(O)cc2)C(=O)N(C)CC(=O)N[C@@H](Cc2c[nH]c3ccccc23)C(=O)N[C@@H](Cc2ccc(O)cc2)C(=O)N[C@@H](CC(C)C)C(=O)N[C@H](C(=O)NCC(N)=O)CSCC(=O)N[C@@H](Cc2cccc3[nH]ccc23)C(=O)N(C)[C@@H](Cc2ccccc2)C(=O)N1C` [Example 3103] ({CH2CO}-[Ala(indol-4-yl)][NMeF][NMeNle][Sar]DV[NMeF]Y[Sar]WYLCG-NH2; thioether N-13), for which the IC50 in assay [1] is above 74.3 nM; at Human PD-L1/PD-1 it was above 30.5 nM.

`CCCC[C@H]1C(=O)N(C)CC(=O)N[C@@H](CC(=O)O)C(=O)N[C@@H](C(C)C)C(=O)N(C)[C@@H](Cc2ccccc2)C(=O)N[C@@H](Cc2ccc(O)cc2)C(=O)N(C)CC(=O)N[C@@H](Cc2c[nH]c3ccccc23)C(=O)N[C@@H](Cc2ccc(O)cc2)C(=O)N[C@@H](CC(C)C)C(=O)N[C@H](C(=O)NCC(N)=O)CSCC(=O)N[C@@H](Cc2ccccc2Cl)C(=O)N(C)[C@@H](Cc2ccccc2)C(=O)N1C` [Example 3104] ({CH2CO}-[Phe(2-Cl)][NMeF][NMeNle][Sar]DV[NMeF]Y[Sar]WYLCG-NH2; thioether N-13): the results for the IC50 (in assay [1]; at Human PD-L1/PD-1) were above 74.3 nM and above 30.5 nM, respectively.
